From PubChem BioAssay AID2060612 (Molecular Pharmacology Branch, DTP, NCI, 2025)

Test system: 565232-114-T-J1-PDC complex spheroid viability
Assay: Anticancer human tumor 565232-114-T-J1-PDC patient-derived bladder carcinoma cell line growth inhibition [CLK]
Conditions: for IC50: curve of first compound; for viability, T/C: stronger effect = lower value
In short: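 Patient-derived tumor cells grown as complex spheroids with HUVEC endothelial cells and mesenchymal stem cells, treated with drug combinations. Concentrations descend in half-log steps from near clinical Cmax, or from 10 microM if Cmax unknown.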

[1] = second compound 0.0316 µM, first compound 0.0316 µM
[2] = second compound 0.0316 µM, first compound 0.1 µM
[3] = second compound 0.0316 µM, first compound 0.316 µM
[4] = second compound 0.0316 µM, first compound 1 µM
[5] = second compound 0.0316 µM, first compound 3.16 µM
[6] = second compound 0.0316 µM, first compound 10 µM
[7] = second compound 0.1 µM, first compound 0.0316 µM
[8] = second compound 0.1 µM, first compound 0.1 µM
[9] = second compound 0.1 µM, first compound 0.316 µM
[10] = second compound 0.1 µM, first compound 1 µM
[11] = second compound 0.1 µM, first compound 3.16 µM
[12] = second compound 0.1 µM, first compound 10 µM
[13] = second compound 0.316 µM, first compound 0.0316 µM
[14] = second compound 0.316 µM, first compound 0.1 µM
[15] = second compound 0.316 µM, first compound 0.316 µM
[16] = second compound 0.316 µM, first compound 1 µM
[17] = second compound 0.316 µM, first compound 3.16 µM
[18] = second compound 0.316 µM, first compound 10 µM
[19] = second compound 1 µM, first compound 0.0316 µM
[20] = second compound 1 µM, first compound 0.1 µM
[21] = second compound 1 µM, first compound 0.316 µM
[22] = second compound 1 µM, first compound 1 µM
[23] = second compound 1 µM, first compound 3.16 µM
[24] = second compound 1 µM, first compound 10 µM
[25] = second compound 3.16 µM, first compound 0.0316 µM
[26] = second compound 3.16 µM, first compound 0.1 µM
[27] = second compound 3.16 µM, first compound 0.316 µM
[28] = second compound 3.16 µM, first compound 1 µM
[29] = second compound 3.16 µM, first compound 3.16 µM
[30] = second compound 3.16 µM, first compound 10 µM
[31] = second compound 10 µM, first compound 0.0316 µM
[32] = second compound 10 µM, first compound 0.1 µM
[33] = second compound 10 µM, first compound 0.316 µM
[34] = second compound 10 µM, first compound 1 µM
[35] = second compound 10 µM, first compound 3.16 µM
[36] = second compound 10 µM, first compound 10 µM
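Further: spheroids exposed to compounds for 7 days before readout.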
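Wherever viability, T/C is given: 100% = DMSO vehicle wells with luminescence normalized to vehicle control.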

For `CC(C)CC(NC(=O)C(Cc1ccccc1)NC(=O)c1cnccn1)B(O)O` (stereo not drawn) + CN1CCN(c2cc(C(=O)Nc3cc4cc(-c5cnn(C)c5)ccc4cn3)ccn2)CC1, the IC50 (second compound 0.0316 µM) was 0.00573 µM, the IC50 (second compound 0.1 µM) was 0.00617 µM and the IC50 (second compound 0.316 µM) was under 0.000949 µM. For the same compound, the IC50 (second compound 1 µM) was under 0.000949 µM, the IC50 (second compound 3.16 µM) was under 0.000949 µM and the IC50 (second compound 10 µM) was under 0.000949 µM. It also gave a viability, T/C (second compound 0.0316 µM, first compound 0.000949 µM) of 120%, a viability, T/C (second compound 0.0316 µM, first compound 0.003 µM) of 109% and a viability, T/C (second compound 0.0316 µM, first compound 0.00949 µM) of 4.38%. The viability, T/C (second compound 0.0316 µM, first compound 0.03 µM) was 1.43%, the viability, T/C (second compound 0.0316 µM, first compound 0.0949 µM) was 1.54% and the viability, T/C (second compound 0.0316 µM, first compound 0.3 µM) was 1.27%. The viability, T/C (second compound 0.1 µM, first compound 0.000949 µM) was 129%, the viability, T/C (second compound 0.1 µM, first compound 0.003 µM) was 133% and the viability, T/C (second compound 0.1 µM, first compound 0.00949 µM) was 2.13%. The viability, T/C (second compound 0.1 µM, first compound 0.03 µM) was 1.8%, the viability, T/C (second compound 0.1 µM, first compound 0.0949 µM) was 1.71% and the viability, T/C (second compound 0.1 µM, first compound 0.3 µM) was 1.6%. The viability, T/C (second compound 0.316 µM, first compound 0.000949 µM) was 23.8%, the viability, T/C (second compound 0.316 µM, first compound 0.003 µM) was 25.9% and the viability, T/C (second compound 0.316 µM, first compound 0.00949 µM) was 3.56%. The viability, T/C (second compound 0.316 µM, first compound 0.03 µM) was 1.36%, the viability, T/C (second compound 0.316 µM, first compound 0.0949 µM) was 1.26% and the viability, T/C (second compound 0.316 µM, first compound 0.3 µM) was 0.65%. For the same compound, the viability, T/C (second compound 1 µM, first compound 0.000949 µM) was 0.22%, the viability, T/C (second compound 1 µM, first compound 0.003 µM) was 3% and the viability, T/C (second compound 1 µM, first compound 0.00949 µM) was 1.91%. The viability, T/C (second compound 1 µM, first compound 0.03 µM) was 0.18%, the viability, T/C (second compound 1 µM, first compound 0.0949 µM) was 2.19% and the viability, T/C (second compound 1 µM, first compound 0.3 µM) was 2.68%. For the same compound, the viability, T/C (second compound 3.16 µM, first compound 0.000949 µM) was 0.16%, the viability, T/C (second compound 3.16 µM, first compound 0.003 µM) was 1.18% and the viability, T/C (second compound 3.16 µM, first compound 0.00949 µM) was 0.21%. For the same compound, the viability, T/C (second compound 3.16 µM, first compound 0.03 µM) was 0.14%, the viability, T/C (second compound 3.16 µM, first compound 0.0949 µM) was 0.16% and the viability, T/C (second compound 3.16 µM, first compound 0.3 µM) was 1.81%. For the same compound, the viability, T/C (second compound 10 µM, first compound 0.000949 µM) was 0.1%, the viability, T/C (second compound 10 µM, first compound 0.003 µM) was 3.27% and the viability, T/C (second compound 10 µM, first compound 0.00949 µM) was 3.03%. It also gave a viability, T/C (second compound 10 µM, first compound 0.03 µM) of 0.17%, a viability, T/C (second compound 10 µM, first compound 0.0949 µM) of 1.45% and a viability, T/C (second compound 10 µM, first compound 0.3 µM) of 0.23%.
For `CC1(C)CCC(CN2CCN(c3ccc(C(=O)NS(=O)(=O)c4ccc(NCC5CCOCC5)c([N+](=O)[O-])c4)c(Oc4cnc5[nH]ccc5c4)c3)CC2)=C(c2ccc(Cl)cc2)C1` + CN1CCN(c2cc(C(=O)Nc3cc4cc(-c5cnn(C)c5)ccc4cn3)ccn2)CC1, the IC50 (second compound 0.0316 µM) was 9.1 µM, the IC50 (second compound 0.1 µM) was 8.01 µM and the IC50 (second compound 0.316 µM) was under 0.0316 µM. The IC50 (second compound 1 µM) was under 0.0316 µM, the IC50 (second compound 3.16 µM) was under 0.0316 µM and the IC50 (second compound 10 µM) was under 0.0316 µM. For the same compound, the viability, T/C [1] was 104%, the viability, T/C [2] was 89% and the viability, T/C [3] was 98.6%. It also gave a viability, T/C [4] of 95.9%, a viability, T/C [5] of 79.5% and a viability, T/C [6] of 47.4%. For the same compound, the viability, T/C [7] was 88.2%, the viability, T/C [8] was 79.3% and the viability, T/C [9] was 95.1%. The viability, T/C [10] was 119%, the viability, T/C [11] was 82.2% and the viability, T/C [12] was 42.3%. The viability, T/C [13] was 13.7%, the viability, T/C [14] was 18.3% and the viability, T/C [15] was 18.5%. For the same compound, the viability, T/C [16] was 17.6%, the viability, T/C [17] was 22.8% and the viability, T/C [18] was 11.4%. The viability, T/C [19] was 1.1%, the viability, T/C [20] was 0.27% and the viability, T/C [21] was 0.22%. For the same compound, the viability, T/C [22] was 0.2%, the viability, T/C [23] was 0.21% and the viability, T/C [24] was 0.31%. For the same compound, the viability, T/C [25] was 0.35%, the viability, T/C [26] was 2.16% and the viability, T/C [27] was 1.93%. For the same compound, the viability, T/C [28] was 0.23%, the viability, T/C [29] was 1.8% and the viability, T/C [30] was 1.49%. For the same compound, the viability, T/C [31] was 0.16%, the viability, T/C [32] was 1.55% and the viability, T/C [33] was 1.55%. It also gave a viability, T/C [34] of 0.15%, a viability, T/C [35] of 0.15% and a viability, T/C [36] of 0.8%.
`CC1COCCN1c1cc(C2(S(C)(=N)=O)CC2)nc(-c2ccnc3[nH]ccc23)n1` (stereo not drawn) + CN1CCN(c2cc(C(=O)Nc3cc4cc(-c5cnn(C)c5)ccc4cn3)ccn2)CC1 gave an IC50 (second compound 0.0316 µM) of over 10 µM, an IC50 (second compound 0.1 µM) of 6.51 µM and an IC50 (second compound 0.316 µM) of under 0.0316 µM. For the same compound, the IC50 (second compound 1 µM) was under 0.0316 µM, the IC50 (second compound 3.16 µM) was under 0.0316 µM and the IC50 (second compound 10 µM) was under 0.0316 µM. It also gave a viability, T/C [1] of 89.7%, a viability, T/C [2] of 93.5% and a viability, T/C [3] of 98.5%. For the same compound, the viability, T/C [4] was 79.7%, the viability, T/C [5] was 101% and the viability, T/C [6] was 50.7%. The viability, T/C [7] was 95.7%, the viability, T/C [8] was 91.2% and the viability, T/C [9] was 80.7%. It also gave a viability, T/C [10] of 82.6%, a viability, T/C [11] of 98.8% and a viability, T/C [12] of 26.1%. It also gave a viability, T/C [13] of 16.3%, a viability, T/C [14] of 18.7% and a viability, T/C [15] of 14.9%. It also gave a viability, T/C [16] of 9.37%, a viability, T/C [17] of 3.94% and a viability, T/C [18] of 3.31%. For the same compound, the viability, T/C [19] was 0.17%, the viability, T/C [20] was 0.5% and the viability, T/C [21] was 0.18%. It also gave a viability, T/C [22] of 0.19%, a viability, T/C [23] of 1.38% and a viability, T/C [24] of 1.91%. The viability, T/C [25] was 0.25%, the viability, T/C [26] was 0.22% and the viability, T/C [27] was 3.08%. The viability, T/C [28] was 0.81%, the viability, T/C [29] was 0.72% and the viability, T/C [30] was 2.22%. For the same compound, the viability, T/C [31] was 1.75%, the viability, T/C [32] was 2.46% and the viability, T/C [33] was 1.22%. The viability, T/C [34] was 0.21%, the viability, T/C [35] was 0.21% and the viability, T/C [36] was 0.53%.
With `O=C(c1cc(Cc2n[nH]c(=O)c3ccccc23)ccc1F)N1CCN(C(=O)C2CC2)CC1` + CN1CCN(c2cc(C(=O)Nc3cc4cc(-c5cnn(C)c5)ccc4cn3)ccn2)CC1 the IC50 (second compound 0.0316 µM) was over 10 µM, the IC50 (second compound 0.1 µM) was over 10 µM and the IC50 (second compound 0.316 µM) was under 0.0316 µM. For the same compound, the IC50 (second compound 1 µM) was under 0.0316 µM, the IC50 (second compound 3.16 µM) was under 0.0316 µM and the IC50 (second compound 10 µM) was under 0.0316 µM. It also gave a viability, T/C [1] of 110%, a viability, T/C [2] of 117% and a viability, T/C [3] of 109%. It also gave a viability, T/C [4] of 94.4%, a viability, T/C [5] of 128% and a viability, T/C [6] of 130%. It also gave a viability, T/C [7] of 122%, a viability, T/C [8] of 106% and a viability, T/C [9] of 139%. For the same compound, the viability, T/C [10] was 115%, the viability, T/C [11] was 148% and the viability, T/C [12] was 108%. It also gave a viability, T/C [13] of 23.3%, a viability, T/C [14] of 22.6% and a viability, T/C [15] of 24.8%. The viability, T/C [16] was 20.1%, the viability, T/C [17] was 19.8% and the viability, T/C [18] was 16%. It also gave a viability, T/C [19] of 0.19%, a viability, T/C [20] of 1.21% and a viability, T/C [21] of 0.25%. For the same compound, the viability, T/C [22] was 0.17%, the viability, T/C [23] was 0.18% and the viability, T/C [24] was 0.19%. For the same compound, the viability, T/C [25] was 0.15%, the viability, T/C [26] was 0.29% and the viability, T/C [27] was 1.69%. For the same compound, the viability, T/C [28] was 0.26%, the viability, T/C [29] was 2.21% and the viability, T/C [30] was 4.24%. The viability, T/C [31] was 1.42%, the viability, T/C [32] was 0.19% and the viability, T/C [33] was 3.03%. It also gave a viability, T/C [34] of 0.19%, a viability, T/C [35] of 0.25% and a viability, T/C [36] of 0.28%.
